The NIST ThermoML archive (doi:10.1016/j.fluid.2012.01.014)
Numbers after ± are expanded uncertainties.

Assay: cn = amount concentration of the nth substance listed, in mol/dm3
Settings: Ring tensiometer

CCCCCCCCCCCC[N+](C)(C)CC.[Br-] [dodecyl ethyl dimethylammonium bromide] + O
surface tension liquid-gas (293 K, c1 = 1e-07): 72.6 ± 1.3 mN/m
surface tension liquid-gas (293 K, c1 = 5.01e-07): 72.4 ± 1.3 mN/m
surface tension liquid-gas (293 K, c1 = 1e-06): 72.3 ± 1.3 mN/m
surface tension liquid-gas (293 K, c1 = 5.01e-06): 72.2 ± 1.3 mN/m
surface tension liquid-gas (293 K, c1 = 1e-05): 71.7 ± 1.3 mN/m
surface tension liquid-gas (293 K, c1 = 5.01e-05): 70.7 ± 1.3 mN/m
surface tension liquid-gas (293 K, c1 = 0.0001): 70 ± 1.3 mN/m
surface tension liquid-gas (293 K, c1 = 0.000501): 67.8 ± 1.3 mN/m
surface tension liquid-gas (293 K, c1 = 0.001): 65.1 ± 1.3 mN/m
surface tension liquid-gas (293 K, c1 = 0.002): 60.3 ± 1.2 mN/m
surface tension liquid-gas (293 K, c1 = 0.00316): 56.4 ± 1.2 mN/m
surface tension liquid-gas (293 K, c1 = 0.00398): 52.4 ± 1.2 mN/m
surface tension liquid-gas (293 K, c1 = 0.00501): 50 ± 1.2 mN/m
surface tension liquid-gas (293 K, c1 = 0.00631): 47.3 ± 1.2 mN/m
surface tension liquid-gas (293 K, c1 = 0.00794): 44.3 ± 1.1 mN/m
surface tension liquid-gas (293 K, c1 = 0.00891): 42.8 ± 1.1 mN/m
surface tension liquid-gas (293 K, c1 = 0.01): 41.5 ± 1.1 mN/m
surface tension liquid-gas (293 K, c1 = 0.0251): 40.9 ± 1.1 mN/m
surface tension liquid-gas (293 K, c1 = 0.0501): 40.6 ± 1.1 mN/m
surface tension liquid-gas (293 K, c1 = 0.1): 39.4 ± 1.1 mN/m
surface tension liquid-gas (303 K, c1 = 1e-07): 71.2 ± 1.3 mN/m
surface tension liquid-gas (303 K, c1 = 5.01e-07): 71.19 ± 1.3 mN/m
surface tension liquid-gas (303 K, c1 = 1e-06): 71.19 ± 1.3 mN/m
surface tension liquid-gas (303 K, c1 = 5.01e-06): 71.13 ± 1.3 mN/m
surface tension liquid-gas (303 K, c1 = 1e-05): 71.06 ± 1.3 mN/m
surface tension liquid-gas (303 K, c1 = 5.01e-05): 70.54 ± 1.3 mN/m
surface tension liquid-gas (303 K, c1 = 0.0001): 69.94 ± 1.3 mN/m
surface tension liquid-gas (303 K, c1 = 0.000501): 66.59 ± 1.3 mN/m
surface tension liquid-gas (303 K, c1 = 0.001): 63.91 ± 1.2 mN/m
surface tension liquid-gas (303 K, c1 = 0.002): 60.54 ± 1.2 mN/m
surface tension liquid-gas (303 K, c1 = 0.00316): 56.13 ± 1.2 mN/m
surface tension liquid-gas (303 K, c1 = 0.00398): 52.36 ± 1.2 mN/m
surface tension liquid-gas (303 K, c1 = 0.00501): 49.44 ± 1.2 mN/m
surface tension liquid-gas (303 K, c1 = 0.00631): 46.78 ± 1.1 mN/m
surface tension liquid-gas (303 K, c1 = 0.00794): 43.72 ± 1.1 mN/m
surface tension liquid-gas (303 K, c1 = 0.00891): 42.12 ± 1.1 mN/m
surface tension liquid-gas (303 K, c1 = 0.01): 40.73 ± 1.1 mN/m
surface tension liquid-gas (303 K, c1 = 0.0251): 40.01 ± 1.1 mN/m
surface tension liquid-gas (303 K, c1 = 0.0501): 39.82 ± 1.1 mN/m
surface tension liquid-gas (303 K, c1 = 0.1): 39 ± 1.1 mN/m
surface tension liquid-gas (313 K, c1 = 1e-07): 69.6 ± 1.3 mN/m
surface tension liquid-gas (313 K, c1 = 5.01e-07): 69.6 ± 1.3 mN/m
surface tension liquid-gas (313 K, c1 = 1e-06): 69.59 ± 1.3 mN/m
surface tension liquid-gas (313 K, c1 = 5.01e-06): 69.56 ± 1.3 mN/m
surface tension liquid-gas (313 K, c1 = 1e-05): 69.53 ± 1.3 mN/m
surface tension liquid-gas (313 K, c1 = 5.01e-05): 69.24 ± 1.3 mN/m
surface tension liquid-gas (313 K, c1 = 0.0001): 68.89 ± 1.3 mN/m
surface tension liquid-gas (313 K, c1 = 0.000501): 65.63 ± 1.3 mN/m
surface tension liquid-gas (313 K, c1 = 0.001): 62.94 ± 1.2 mN/m
surface tension liquid-gas (313 K, c1 = 0.002): 59.58 ± 1.2 mN/m
surface tension liquid-gas (313 K, c1 = 0.00316): 55.17 ± 1.2 mN/m
surface tension liquid-gas (313 K, c1 = 0.00398): 51.87 ± 1.2 mN/m
surface tension liquid-gas (313 K, c1 = 0.00501): 48.85 ± 1.2 mN/m
surface tension liquid-gas (313 K, c1 = 0.00631): 46.39 ± 1.1 mN/m
surface tension liquid-gas (313 K, c1 = 0.00794): 43.12 ± 1.1 mN/m
surface tension liquid-gas (313 K, c1 = 0.00891): 41.71 ± 1.1 mN/m
surface tension liquid-gas (313 K, c1 = 0.01): 39.82 ± 1.1 mN/m
surface tension liquid-gas (313 K, c1 = 0.0251): 39.43 ± 1.1 mN/m
surface tension liquid-gas (313 K, c1 = 0.0501): 38.75 ± 1.1 mN/m
surface tension liquid-gas (313 K, c1 = 0.1): 38.24 ± 1.1 mN/m

O [water] + CCCCCCCCCCCCN(C)CC(=O)[O-].[Na+]
surface tension liquid-gas (293 K, c2 = 0): 72.8 ± 1.3 mN/m
surface tension liquid-gas (303 K, c2 = 0): 71.2 ± 1.3 mN/m
surface tension liquid-gas (313 K, c2 = 0): 69.6 ± 1.3 mN/m

O [water] + CCCCCCCCCCCCCCCC[n+]1ccccc1.[Br-]
surface tension liquid-gas (293 K, c2 = 0): 72.8 ± 1.3 mN/m
surface tension liquid-gas (303 K, c2 = 0): 71.2 ± 1.3 mN/m
surface tension liquid-gas (313 K, c2 = 0): 69.6 ± 1.3 mN/m

CCCCCCCCCCCCCCCC[n+]1ccccc1.[Br-] [1-hexadecylpyridinium bromide] + O
surface tension liquid-gas (293 K, c1 = 1e-08): 72.8 ± 1.3 mN/m
surface tension liquid-gas (293 K, c1 = 5.01e-08): 72.8 ± 1.3 mN/m
surface tension liquid-gas (293 K, c1 = 1e-07): 72.75 ± 1.3 mN/m
surface tension liquid-gas (293 K, c1 = 5.01e-07): 72.7 ± 1.3 mN/m
surface tension liquid-gas (293 K, c1 = 1e-06): 72.6 ± 1.3 mN/m
surface tension liquid-gas (293 K, c1 = 5.01e-06): 71.7 ± 1.3 mN/m
surface tension liquid-gas (293 K, c1 = 1e-05): 71.1 ± 1.3 mN/m
surface tension liquid-gas (293 K, c1 = 2e-05): 69.8 ± 1.3 mN/m
surface tension liquid-gas (293 K, c1 = 5.01e-05): 67.4 ± 1.3 mN/m
surface tension liquid-gas (293 K, c1 = 0.0001): 63 ± 1.2 mN/m
surface tension liquid-gas (293 K, c1 = 0.0002): 54.6 ± 1.2 mN/m
surface tension liquid-gas (293 K, c1 = 0.000398): 45.5 ± 1.1 mN/m
surface tension liquid-gas (293 K, c1 = 0.000631): 44.8 ± 1.1 mN/m
surface tension liquid-gas (293 K, c1 = 0.000794): 45.3 ± 1.1 mN/m
surface tension liquid-gas (293 K, c1 = 0.001): 44.4 ± 1.1 mN/m
surface tension liquid-gas (293 K, c1 = 0.002): 44 ± 1.1 mN/m
surface tension liquid-gas (293 K, c1 = 0.00398): 44.5 ± 1.1 mN/m
surface tension liquid-gas (293 K, c1 = 0.00603): 44.1 ± 1.1 mN/m
surface tension liquid-gas (293 K, c1 = 0.00794): 43.2 ± 1.1 mN/m
surface tension liquid-gas (293 K, c1 = 0.01): 43.2 ± 1.1 mN/m
surface tension liquid-gas (293 K, c1 = 0.0302): 39.4 ± 1.1 mN/m
surface tension liquid-gas (293 K, c1 = 0.0603): 38.8 ± 1.1 mN/m
surface tension liquid-gas (303 K, c1 = 1e-08): 71.2 ± 1.3 mN/m
surface tension liquid-gas (303 K, c1 = 5.01e-08): 71.19 ± 1.3 mN/m
surface tension liquid-gas (303 K, c1 = 1e-07): 71.18 ± 1.3 mN/m
surface tension liquid-gas (303 K, c1 = 5.01e-07): 71.13 ± 1.3 mN/m
surface tension liquid-gas (303 K, c1 = 1e-06): 71.07 ± 1.3 mN/m
surface tension liquid-gas (303 K, c1 = 5.01e-06): 70.56 ± 1.3 mN/m
surface tension liquid-gas (303 K, c1 = 1e-05): 69.97 ± 1.3 mN/m
surface tension liquid-gas (303 K, c1 = 2e-05): 68.91 ± 1.3 mN/m
surface tension liquid-gas (303 K, c1 = 5.01e-05): 66.38 ± 1.3 mN/m
surface tension liquid-gas (303 K, c1 = 0.0001): 61.8 ± 1.2 mN/m
surface tension liquid-gas (303 K, c1 = 0.0002): 53.41 ± 1.2 mN/m
surface tension liquid-gas (303 K, c1 = 0.000398): 44.73 ± 1.1 mN/m
surface tension liquid-gas (303 K, c1 = 0.000631): 44.03 ± 1.1 mN/m
surface tension liquid-gas (303 K, c1 = 0.000794): 44.04 ± 1.1 mN/m
surface tension liquid-gas (303 K, c1 = 0.001): 43.92 ± 1.1 mN/m
surface tension liquid-gas (303 K, c1 = 0.002): 43.81 ± 1.1 mN/m
surface tension liquid-gas (303 K, c1 = 0.00398): 43.79 ± 1.1 mN/m
surface tension liquid-gas (303 K, c1 = 0.00603): 43.62 ± 1.1 mN/m
surface tension liquid-gas (303 K, c1 = 0.00794): 42.83 ± 1.1 mN/m
surface tension liquid-gas (303 K, c1 = 0.01): 42.75 ± 1.1 mN/m
surface tension liquid-gas (303 K, c1 = 0.0302): 38.89 ± 1.1 mN/m
surface tension liquid-gas (303 K, c1 = 0.0603): 38.02 ± 1.1 mN/m
surface tension liquid-gas (313 K, c1 = 1e-08): 69.6 ± 1.3 mN/m
surface tension liquid-gas (313 K, c1 = 5.01e-08): 69.59 ± 1.3 mN/m
surface tension liquid-gas (313 K, c1 = 1e-07): 69.57 ± 1.3 mN/m
surface tension liquid-gas (313 K, c1 = 5.01e-07): 69.54 ± 1.3 mN/m
surface tension liquid-gas (313 K, c1 = 1e-06): 69.49 ± 1.3 mN/m
surface tension liquid-gas (313 K, c1 = 5.01e-06): 69.04 ± 1.3 mN/m
surface tension liquid-gas (313 K, c1 = 1e-05): 68.52 ± 1.3 mN/m
surface tension liquid-gas (313 K, c1 = 2e-05): 67.58 ± 1.3 mN/m
surface tension liquid-gas (313 K, c1 = 5.01e-05): 65.26 ± 1.3 mN/m
surface tension liquid-gas (313 K, c1 = 0.0001): 60.65 ± 1.2 mN/m
surface tension liquid-gas (313 K, c1 = 0.0002): 53.01 ± 1.2 mN/m
surface tension liquid-gas (313 K, c1 = 0.000398): 44.56 ± 1.1 mN/m
surface tension liquid-gas (313 K, c1 = 0.000631): 43.87 ± 1.1 mN/m
surface tension liquid-gas (313 K, c1 = 0.000794): 43.86 ± 1.1 mN/m
surface tension liquid-gas (313 K, c1 = 0.001): 43.75 ± 1.1 mN/m
surface tension liquid-gas (313 K, c1 = 0.002): 43.68 ± 1.1 mN/m
surface tension liquid-gas (313 K, c1 = 0.00398): 43.64 ± 1.1 mN/m
surface tension liquid-gas (313 K, c1 = 0.00603): 43.53 ± 1.1 mN/m
surface tension liquid-gas (313 K, c1 = 0.00794): 42.74 ± 1.1 mN/m
surface tension liquid-gas (313 K, c1 = 0.01): 42.65 ± 1.1 mN/m
surface tension liquid-gas (313 K, c1 = 0.0302): 38.9 ± 1.1 mN/m
surface tension liquid-gas (313 K, c1 = 0.0603): 37.95 ± 1.1 mN/m
